Assay results: US10925967B2, “Degradation of Bruton's tyrosine kinase (BTK) by conjugation of BTK inhibitors with E3 ligase ligand and methods of use” (Dana-Farber Cancer Institute, Inc., priority 2016, dated 2021)

Tests used:
BTK [1] = target: T1, BTK (Homo sapiens, UniProt Q06187); assay: K562 cell assay and Western blotting of BTK levels; format: cell-based; set-up: endogenous in cells; host or cells: K562 cells; details: K562 cells, 200 nM, 1 μM, or 5 μM, 12 hours
Protocol: K562 cells were treated with DMSO or with 200 nM, 1 μM, or 5 μM of a BTK bifunctional inhibitor compound of the disclosure for 12 hours, followed by protein lysate harvest and Western blotting analysis.
(§1) Cells are lysed using RIPA buffer supplemented with protease inhibitor cocktail (Roche) and phosSTOP phosphatase inhibitor cocktail (Roche) on ice for 15 minutes. The lysates are spun at 20,000×g for 15 minutes on 4° C. and protein concentration is determined using BCA assay (Pierce). The following primary antibodies are used in this study: BTK, GADPH, tubulin and Aurora A kinase (all from Cell Signaling Technology). Blots are imaged using fluorescence-labeled secondary antibodies (LI-COR) on the OdysseyCLxImager (LI-COR). Quantification of band intensities is performed using OdysseyCLx software (LI-COR).

BTK [2] = target: T1, BTK; assay: MOLM14 cell assay and Western blotting of BTK, Aurora A and tubulin levels; format: cell-based; set-up: endogenous in cells; details: MOLM14 cells, 40 nM, 200 nM, 1 μM, 4 hours
Protocol: MOLM14 cells were treated with DMSO or with 40 nM, 200 nM, 1 μM of a BTK bifunctional inhibitor compound of the disclosure for 4 hours, followed by protein lysate harvest and Western blotting analysis of BTK, Aurora A, and ca-tubulin levels. […] (FIG. 2)
as §1

T1 sequence (Q06187 whole entry): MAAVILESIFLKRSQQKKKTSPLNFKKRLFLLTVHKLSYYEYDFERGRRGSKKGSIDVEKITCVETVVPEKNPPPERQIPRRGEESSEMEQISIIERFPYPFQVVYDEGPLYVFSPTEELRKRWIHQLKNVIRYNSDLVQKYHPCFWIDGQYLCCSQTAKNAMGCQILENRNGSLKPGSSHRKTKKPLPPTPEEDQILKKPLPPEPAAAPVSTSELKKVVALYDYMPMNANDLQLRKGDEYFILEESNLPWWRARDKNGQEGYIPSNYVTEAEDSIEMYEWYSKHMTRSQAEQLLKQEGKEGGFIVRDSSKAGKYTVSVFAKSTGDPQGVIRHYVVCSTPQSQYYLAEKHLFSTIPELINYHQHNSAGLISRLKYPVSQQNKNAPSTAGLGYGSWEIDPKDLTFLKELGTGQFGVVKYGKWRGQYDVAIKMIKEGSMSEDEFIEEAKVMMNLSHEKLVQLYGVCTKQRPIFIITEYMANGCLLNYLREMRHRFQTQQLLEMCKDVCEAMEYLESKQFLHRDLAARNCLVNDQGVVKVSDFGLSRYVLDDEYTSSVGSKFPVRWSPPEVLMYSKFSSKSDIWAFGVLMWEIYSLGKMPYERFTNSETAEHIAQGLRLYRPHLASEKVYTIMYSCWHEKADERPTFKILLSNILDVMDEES

Row | Structure (SMILES) | BTK degradation (Western blot) (BTK [1]) | BTK degradation (Western blot) (BTK [2])
1 | COc1cc(Nc2c(C#N)cnc3cc(OCCCN4CCN(CCOCCOCCOCCNc5cccc6c5C(=O)N(C5CCC(=O)NC5=O)C6=O)CC4)c(OC)cc23)c(Cl)cc1Cl (stereo not drawn) [Compound I-2] | showed BTK degradation | –
2 | COc1cc(Nc2c(C#N)cnc3cc(OCCCN4CCN(CCOCCOCCNc5cccc6c5C(=O)N(C5CCC(=O)NC5=O)C6=O)CC4)c(OC)cc23)c(Cl)cc1Cl (stereo not drawn) [Compound I-3] | – | showed BTK degradation
3 | COc1cc(Nc2c(C#N)cnc3cc(OCCCN4CCN(C(=O)CCCNC(=O)COc5cccc6c5C(=O)N(C5CCC(=O)NC5=O)C6=O)CC4)c(OC)cc23)c(Cl)cc1Cl (stereo not drawn) [Compound I-5] | showed BTK degradation | –
